{"source": "patent US20110105603A1", "about": "“COMPOSITIONS AND METHODS FOR TREATING BETA-AMYLOID RELATED DISEASES” (priority 2009, published 2011)", "key": {"[1]": {"system": "rats", "conditions": "cited from earlier work"}, "[2]": {"system": "healthy human volunteers", "conditions": "single or continuous 1 week oral administration at about 5 mg/kg/day; cited from earlier work"}, "[3]": {"conditions": "cited from earlier work"}, "[4]": {"system": "BACE1", "test": "Example 9: brain BACE1 activity in guinea pigs", "format": "in vivo, guinea pig", "conditions": "once-a-day oral", "method": "Guinea Pig Gavage Dosing: Guinea pigs were gavaged daily for one week. Guinea pigs were lightly anesthetized with isoflurane prior to gavaging. 250 μl of compound solution was gavaged daily per animal and animals were sacrificed 4 hrs after the last dosing. The brain BACE1 activity in guinea pigs was measured by Beta secretase activity was determined using a fluorometric assay kit from Abcam (ab65357) as described by the manufacturer."}, "[5]": {"system": "dogs", "conditions": "cited from earlier work"}, "[6]": {"system": "transgenic APPlon mice", "test": "Example 9: Morris water maze, spatial memory deficit in transgenic APPlon mice", "conditions": "E64d-doped chow 1 or 3 months, either age group", "text": "Transgenic AD Mice. Transgenic mice expressing human APP containing the wt β-secretase site and the London mutant γ-secretase site sequences (also called “transgenic APPlon mice”, or “London APP mice”) were generated at the Ralph A. Johnson VA Medical Center (Charleston, S.C.) by methods previously described, see e.g., Hook, et al. (2008) J. Biol. Chem. 283:7745-7753. Briefly, APPLn was generated using site-directed mutagenesis to insert the V7171 London mutation into human APP cDNA. The mouse strain was created in a C57BL/6 mouse background using the Thy-1.2 expression cassette driven by the Thy-1 promoter containing an SV40 polyadenylation site. Mice were given free access to food and water before and during the experiment. […]\nThe memory deficit in transgenic APPln mice (APPlon mice) was measured using the Morris water maze test. Briefly, the spatial memory capability of each animal was assessed by the Morris water maze test as described e.g., by S. Mueller-Steiner (2006) Neuron 51:703-714; using catalog part no. […] Two days following the nonspatial pretraining, the hidden platform was placed in the center of one quadrant of the pool, the animal was released facing the pool wall in a random fashion, the time was recorded (latency period), and the distance traveled to reach the platform was measured using video recording (Smart Video Tracking System; SD Instruments)."}, "[7]": {"system": "Aβ40 and Aβ42", "test": "Example 9: brain, CSF and plasma Aβ after once-a-day gavage in guinea pigs", "format": "in vivo, guinea pig", "conditions": "once-a-day for one week oral", "source_text": "Guinea Pigs. Guinea Pigs (Harley strain, average weight 400 g corresponding to animals about 6 weeks old) were obtained from Charles River (Wilmington, Mass.). The animals were given free access to standard chow and water before and during the experiment. Gavage Formulation: Delivering a drug by gavage offers the advantage of accurate dosing but is traumatic and thus only suitable for relatively short dosing periods. Gavage delivery was used for the guinea pig work. E64d was resuspended in DMSO at indicated concentrations (see Figures, and below) and guinea pigs were gavaged daily using a feeding tube. Vehicle control animals were provided DMSO alone. Guinea Pig Gavage Dosing: Guinea pigs were gavaged daily for one week. Guinea pigs were lightly anesthetized with isoflurane prior to gavaging. 250 μl of compound solution was gavaged daily per animal and animals were sacrificed 4 hrs after the last dosing."}, "[8]": {"system": "cathepsin B", "test": "Example 9: brain cathepsin B activity in guinea pigs", "format": "in vivo, guinea pig", "conditions": "once-a-day oral", "method": "Guinea Pig Gavage Dosing: Guinea pigs were gavaged daily for one week. Guinea pigs were lightly anesthetized with isoflurane prior to gavaging. 250 μl of compound solution was gavaged daily per animal and animals were sacrificed 4 hrs after the last dosing.\nThe brain cathepsin B activity in guinea pigs was measured as follows: Cathepsin B activity was determined using a fluorometric assay kit from Abcam, Inc. (catalog ab65300; Cambridge, Mass.) as described by the manufacturer."}, "[9]": {"conditions": "animals, radioactive AB-007; cited from earlier work"}, "[10]": {"conditions": "oral; cited from earlier work"}, "[11]": {"system": "brain Aβ40 and brain Aβ42", "test": "Example 8: brain Aβ40 and Aβ42 ELISA after oral gavage in wild-type guinea pigs", "format": "in vivo", "conditions": "guinea pig, 10 mg/kg/day oral, 7 days"}, "[12]": {"system": "dogs with canine dementia", "conditions": "in one month; cited from earlier work"}, "[13]": {"biological_target": "Cathepsin B (Homo sapiens, UniProt P07858)", "test": "biochemical"}}}
{"compound": "CCOC(=O)[C@H]1O[C@@H]1C(=O)N[C@@H](CC(C)C)C(=O)NCCC(C)C", "note": "(relative stereo) [AB-007, (2S,3S)-trans-epoxysuccinyl-L-leucyl-amido-3-methylbutane ethyl ester]", "values": [{"measurement": "subacute no-effect dose", "setting": "[1]; oral, rats", "result": "under 80 mg/kg/day"}, {"measurement": "chronic toxicity no-effect dose level", "setting": "[1]; rat, in vivo", "result": "below 2 mg/kg/day"}, {"measurement": "target organs for toxicity", "setting": "[1]; rat, in vivo", "result": "liver and kidney"}, {"measurement": "hepatic injury, species sensitivity", "setting": "[1]; rats versus other species", "result": "hepatic injury seen in rats does not occur in other species"}, {"measurement": "hematological tests, blood chemistry, urinalyses", "setting": "[2]", "result": "no changes"}, {"measurement": "pulse, blood pressure, body temperature, grip force, electrocardiogram, physician observations", "setting": "[2]", "result": "no change"}, {"measurement": "effect on the central nervous system", "setting": "[3]; high oral doses (500 mg/kg and 1 g/kg)", "result": "depress the central nervous system, causing sedation and mild inhibition of pentetrazol-induced seizure"}, {"measurement": "influence on vision or hearing", "setting": "[3]; maximal intravenous or oral doses, rats", "result": "do not influence vision or hearing"}, {"measurement": "brain BACE1 activity", "setting": "[4]", "result": "increase"}, {"measurement": "chronic toxicity no-effect dose level", "setting": "[5]; dog, in vivo", "result": "< 5", "unit": "mg/kg/day"}, {"measurement": "subacute no-effect dose", "setting": "[5]; oral, dogs", "result": "< 40", "unit": "mg/kg/day"}, {"measurement": "mean latency period relative to age-matched controls", "setting": "[6]", "result": "significantly reduced"}, {"measurement": "CSF Aβ", "setting": "[7]", "result": "dose response reduction"}, {"measurement": "CSF Aβ(42)", "setting": "[7]", "result": "dose response reduction"}, {"measurement": "brain Aβ(40)", "setting": "[7]", "result": "dose response reduction"}, {"measurement": "brain Aβ(42)", "setting": "[7]", "result": "dose response reduction"}, {"measurement": "plasma Aβ(40)", "setting": "[7]", "result": "dose response reduction"}, {"measurement": "plasma Aβ(42)", "setting": "[7]", "result": "dose response reduction"}, {"measurement": "brain cathepsin B activity", "setting": "[8]", "result": "dose response reduction"}, {"measurement": "concentration in all other organs, including the brain", "setting": "[9]", "result": "corresponding to the plasma concentration or concentrations lower than plasma"}, {"measurement": "kidney concentration relative to plasma concentration", "setting": "[9]", "result": "~12", "unit": "times"}, {"measurement": "conversion in the gut to E64c", "setting": "[10]", "result": "rapidly and completely converted"}, {"measurement": "reduction of brain Aβ42 relative to vehicle control", "setting": "[11]", "result": 42, "unit": "%"}]}
{"compound": "C#CCN(C)[C@H](C)Cc1ccccc1", "note": "[Anipryl]", "values": [{"measurement": "affected dogs with improved behavior", "setting": "[12]", "result": "about 75%"}]}
{"compound": "[2H]C([2H])([2H])C(C)C[C@H](NC(=O)[C@H]1O[C@@H]1C(=O)O)C(=O)NCCC(C)C", "note": "(stereo partly drawn) [Compound 1B, (2S,3S)-3-((S)-1-(Isopentylamino)-4-methyl-d3-1-oxopentan-2-ylcarbamoyl)oxirane-2-carboxylic acid]", "values": [{"measurement": "IC50", "setting": "[13]", "result": 2, "unit": "nM"}]}
{"compound": "[2H]C([2H])([2H])C([2H])(C[C@H](NC(=O)[C@H]1O[C@@H]1C(=O)O)C(=O)NCCC(C)C)C([2H])([2H])[2H]", "note": "[Compound 2B, (2S,3S)-3-((S)-4,5,5,5-d4-1-(isopentylamino)-1-oxo-4-(methyl-d3)pentan-2-ylcarbamoyl)oxirane-2-carboxylic acid]", "values": [{"measurement": "IC50", "setting": "[13]", "result": 1.5, "unit": "nM"}]}
{"compound": "[2H][C@@](CC(C)C)(NC(=O)[C@H]1O[C@@H]1C(=O)O)C(=O)NCCC(C)C", "note": "[Compound 3B, (2S,3S)-3-((S)-2-d1-1-(isopentylamino)-4-methyl-1-oxopentan-2-ylcarbamoyl)oxirane-2-carboxylic acid]", "values": [{"measurement": "IC50", "setting": "[13]", "result": 1.9, "unit": "nM"}]}
{"compound": "CC(C)CCNC(=O)[C@H](CC(C)C)NC(=O)[C@H]1O[C@@H]1C(=O)O", "note": "[Compound E64c]", "values": [{"measurement": "IC50", "setting": "[13]", "result": 1, "unit": "nM"}]}
{"compound": "[2H]C([2H])([2H])C([2H])(CCNC(=O)[C@H](CC(C)C)NC(=O)[C@H]1O[C@@H]1C(=O)OCC)C([2H])([2H])[2H]", "note": "[Compound E64d7]", "values": [{"measurement": "brain BACE1 activity", "setting": "[4]", "result": "increase"}, {"measurement": "CSF Aβ", "setting": "[7]", "result": "dose response reduction"}, {"measurement": "CSF Aβ(42)", "setting": "[7]", "result": "dose response reduction"}, {"measurement": "brain Aβ(40)", "setting": "[7]", "result": "dose response reduction"}, {"measurement": "brain Aβ(42)", "setting": "[7]", "result": "dose response reduction"}, {"measurement": "plasma Aβ(40)", "setting": "[7]", "result": "dose response reduction"}, {"measurement": "plasma Aβ(42)", "setting": "[7]", "result": "dose response reduction"}, {"measurement": "brain cathepsin B activity", "setting": "[8]", "result": "dose response reduction"}]}
